The target in assay [1] is T1, KaiC (Synechococcus elongatus, UniProt Q79PF4, S229T/T240N).
T1 construct: full-length (CI 1-268, CII 269-519), pGEX-6P-1 (GST) in E. coli BL21, purified, hexamer
Briefly: HPLC ADP production (ATPase). It counts as biochemical. The following applies: 1 mM ATP, 5 mM MgCl2, 150 mM NaCl, pH 8.0, 25 C.

Assay [2] concerns the target T2, KaiC (Synechococcus elongatus, UniProt Q79PF4).
T2 construct: full-length (CI 1-268, CII 269-519), pGEX-6P-1 (GST) in E. coli BL21, purified, hexamer
T2 sequence (Q79PF4 1-519): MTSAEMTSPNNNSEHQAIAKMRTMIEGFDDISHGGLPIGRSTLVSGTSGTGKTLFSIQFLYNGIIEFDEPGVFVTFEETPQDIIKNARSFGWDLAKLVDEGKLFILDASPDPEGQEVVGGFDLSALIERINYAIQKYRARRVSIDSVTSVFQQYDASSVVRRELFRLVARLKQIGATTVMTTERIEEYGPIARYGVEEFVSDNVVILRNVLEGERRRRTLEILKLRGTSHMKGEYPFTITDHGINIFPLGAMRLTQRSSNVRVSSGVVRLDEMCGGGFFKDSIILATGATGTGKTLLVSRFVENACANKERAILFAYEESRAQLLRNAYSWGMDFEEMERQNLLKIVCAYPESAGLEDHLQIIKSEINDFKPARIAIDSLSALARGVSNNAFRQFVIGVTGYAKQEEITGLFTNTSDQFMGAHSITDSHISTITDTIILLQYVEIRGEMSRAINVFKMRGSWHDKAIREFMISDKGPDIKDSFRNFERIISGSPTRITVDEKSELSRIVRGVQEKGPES
Briefly: HPLC ADP production (ATPase). It counts as biochemical. The following applies: 1 mM ATP, 5 mM MgCl2, 150 mM NaCl, pH 8.0, 25 C.

T1 sequence (Q79PF4 whole entry S229T/T240N): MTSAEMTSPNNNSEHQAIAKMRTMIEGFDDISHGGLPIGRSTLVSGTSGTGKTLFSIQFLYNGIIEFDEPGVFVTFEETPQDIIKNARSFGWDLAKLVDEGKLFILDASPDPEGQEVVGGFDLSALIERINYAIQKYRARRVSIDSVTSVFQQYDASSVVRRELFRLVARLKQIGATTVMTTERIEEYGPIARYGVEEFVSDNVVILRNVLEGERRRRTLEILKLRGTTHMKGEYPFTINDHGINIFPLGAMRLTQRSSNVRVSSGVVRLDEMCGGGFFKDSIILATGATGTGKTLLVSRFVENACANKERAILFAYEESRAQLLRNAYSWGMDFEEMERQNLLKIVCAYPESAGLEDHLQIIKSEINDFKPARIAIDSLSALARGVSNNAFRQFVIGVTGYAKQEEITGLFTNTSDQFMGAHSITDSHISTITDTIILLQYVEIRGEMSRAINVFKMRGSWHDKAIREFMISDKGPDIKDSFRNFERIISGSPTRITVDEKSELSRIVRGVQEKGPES

For the compound `Nc1ncnc2c1ncn2[C@@H]1O[C@H](COP(=O)(O)OP(=O)(O)OP(=O)(O)O)[C@@H](O)[C@H]1O` [ATP], the “HPLC ADP production (ATPase)” value at KaiC [1] is given as “the activity of ATP hydrolysis was significantly repressed in the double mutants”; at KaiC [2] it was “ATPase activity of anKaiC was significantly lower than that of KaiC”.
